The experiment addresses TREM2 extracellular domain (ECD) (residues 19-131, C-terminally biotinylated, deglycosylated or glycosylated) (Homo sapiens, UniProt Q9NZC2). Description: biochemical.
Setting [1] is: Human BLI (Kd; nM) (deglycosylated), Table 4A, deglycosylated human TREM2 ECD, steady-state KD, 25° C.
Where [2] appears, read: Human BLI (Kd; nM) (deglycosylated), Table 4B, deglycosylated human TREM2 ECD, steady-state KD, 25° C.

We go through six compounds from patent US11904020B2, “Bicyclic peptide ligands specific for TREM2” (Bicycle Tx Limited, priority 2021, dated 2024).

*1 amine or outer side, *2 acyl side, *3 side chain or, on linkers, in order; H or OH if unused. Where a SMILES comes first, the peptide text is derived from it. Bridges are numbered along the chain shown (N, C = ends). [ ]: non-standard residue; d: D form. TATA = O=C(CC[*:1])N1CN(C(=O)CC[*:2])CN(C(=O)CC[*:3])C1; 1Nal = N[C@@H](Cc1cccc2ccccc12)C(=O)O
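Further: Bio-layer interferometry in 50 mM HEPES pH 7.5 with 150 mM NaCl and 0.1% Tween, double-referenced with blank wells and unrelated-protein sensors, equilibrium response fitted versus concentration.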

TREM2 extracellular domain (ECD) (residues 19-131, C-terminally biotinylated, deglycosylated or glycosylated), sequence (Q9NZC2 19-131): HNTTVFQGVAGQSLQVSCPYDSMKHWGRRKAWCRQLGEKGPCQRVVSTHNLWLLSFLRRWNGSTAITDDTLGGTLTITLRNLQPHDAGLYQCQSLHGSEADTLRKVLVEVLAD
Procedure: Bio-layer interferometry was performed on an Octet RED384® system (Sartorius) at 25° C. in a buffer containing 50 mM HEPES (pH 7.5), 150 mM NaCl and 0.1% Tween. TREM2 extracellular domain (ECD) (residues 19-131, C-terminally biotinylated, deglycosylated or glycosylated) was loaded onto Superstreptavidin biosensors (SSA, 18-5070, Sartorius) at 0.0125 mg/ml for 300 s. Bicycle peptides (10 mM in DMSO) were dispensed into 384-Well Tilted-Bottom Plates (18-5076, Sartorius) using an Echo liquid handler giving a final DMSO concentration of 0.125% in all wells including control wells. Association of defined concentrations of bicyclic peptide (0-12.5 μM, 1:2 dilutions for 7 points) was recorded over 120 s followed by dissociation in buffer over 120 s. Reference wells containing no bicycle peptides and reference sensors loaded with an unrelated protein (His-tagged MLLT3a) were subjected to the same assay protocol and double reference subtraction was used for processing to account for non-specific binding. Traces were analysed using Octet Software (Version 11.0). Association and dissociation curves were globally fit and the response at equilibrium (Req) plotted against concentration to obtain steady-state KD values.

On to `CC(C)C[C@@H]1NC(=O)[C@H](Cc2ccccc2)NC(=O)[C@H](Cc2ccccc2)NC(=O)[C@@H]2CCCN2C(=O)[C@H](Cc2c[nH]c3ccccc23)NC(=O)[C@H](Cc2ccccc2)NC(=O)[C@@H]2CSCCC(=O)N3CN(CN(C3)C(=O)CCSC[C@@H](C(=O)N[C@@H](C)C(N)=O)NC1=O)C(=O)CCSC[C@H](NC(=O)[C@H](C)N)C(=O)N[C@@H](CO)C(=O)N[C@@H](CCC(=O)O)C(=O)N[C@@H](Cc1ccc(O)cc1)C(=O)N2` [BCY19776, A-(SEQ ID NO: 15)-A] (H-ACSEYCFWPFFLCA-NH2; linker 2-6-13 via TATA), for which, under setting [1], the equilibrium dissociation constant (Kd) (commonly a measure of binding affinity in units of concentration) turned out to be 750 nM. The same measure, in the same setting: the value for `C[C@H](N)C(=O)N[C@H]1CSCCC(=O)N2CN3CN(C2)C(=O)CCSC[C@H](NC(=O)[C@H](Cc2ccc(O)cc2)NC(=O)[C@H](CC(N)=O)NC(=O)[C@H]([C@@H](C)O)NC1=O)C(=O)N[C@@H](Cc1ccccc1)C(=O)N[C@@H](Cc1c[nH]c2ccccc12)C(=O)N1CCC[C@H]1C(=O)N[C@@H](Cc1ccccc1)C(=O)N[C@@H](CCC(N)=O)C(=O)N[C@@H](CO)C(=O)N[C@H](C(=O)N[C@@H](C)C(N)=O)CSCCC3=O` [BCY19780, A-(SEQ ID NO: 19)-A] (H-ACTNYCFWPFQSCA-NH2; linker 2-6-13 via TATA) was 2400 nM.

The compound `C[C@H](N)C(=O)N[C@H]1CSCCC(=O)N2CN3CN(C2)C(=O)CCSC[C@H](NC(=O)[C@H](Cc2ccc(O)cc2)NC(=O)[C@H](CC(N)=O)NC(=O)[C@H]([C@@H](C)O)NC1=O)C(=O)N[C@@H](Cc1ccccc1)C(=O)N[C@@H](Cc1c[nH]c2ccccc12)C(=O)N1CCC[C@H]1C(=O)N[C@@H](Cc1ccccc1)C(=O)N[C@@H](Cc1ccc(O)cc1)C(=O)N[C@@H](CO)C(=O)N[C@H](C(=O)N[C@@H](C)C(N)=O)CSCCC3=O` [BCY19781, A-(SEQ ID NO: 20)-A] (H-ACTNYCFWPFYSCA-NH2; linker 2-6-13 via TATA) registered a Kd under setting [1] of 1400 nM. In the case of `CC(C)[C@@H]1NC(=O)[C@H](C)NC(=O)[C@H](Cc2ccccc2)NC(=O)[C@@H]2CCCN2C(=O)[C@H](Cc2c[nH]c3ccccc23)NC(=O)[C@H](Cc2ccccc2)NC(=O)[C@@H]2CSCCC(=O)N3CN(CN(C3)C(=O)CCSC[C@@H](C(=O)N[C@@H](C)C(N)=O)NC1=O)C(=O)CCSC[C@H](NC(=O)[C@H](C)N)C(=O)N[C@@H]([C@@H](C)O)C(=O)N[C@@H](CC(N)=O)C(=O)N[C@@H](Cc1ccc(O)cc1)C(=O)N2` [BCY19783, A-(SEQ ID NO: 22)-A] (H-ACTNYCFWPFAVCA-NH2; linker 2-6-13 via TATA), under setting [1], binding was characterised by a dissociation constant (Kd) of 2700 nM.

`CC(=O)N[C@H]1CSCCC(=O)N2CN3CN(C2)C(=O)CCSC[C@H](NC(=O)[C@H](Cc2ccc(O)cc2)NC(=O)[C@H](CCC(=O)O)NC(=O)[C@H](CO)NC1=O)C(=O)N[C@@H](Cc1ccccc1F)C(=O)N[C@@H](Cc1c[nH]c2ccccc12)C(=O)N1CCC[C@H]1C(=O)N[C@@H](Cc1ccccc1)C(=O)N[C@@H](Cc1ccc(O)cc1)C(=O)N[C@@H](Cc1c[nH]cn1)C(=O)N[C@H](C(N)=O)CSCCC3=O` [BCY20051, Ac-(SEQ ID NO: 51)] gave a Kd under setting [2] of 2030 nM. This lies in the single-digit micromolar range. Take `CC(=O)N[C@H]1CSCCC(=O)N2CN3CN(C2)C(=O)CCSC[C@H](NC(=O)[C@H](Cc2ccc(O)cc2)NC(=O)[C@H](CCC(=O)O)NC(=O)[C@H](CO)NC1=O)C(=O)N[C@@H](Cc1cccc2ccccc12)C(=O)N[C@@H](Cc1c[nH]c2ccccc12)C(=O)N1CCC[C@H]1C(=O)N[C@@H](Cc1ccccc1)C(=O)N[C@@H](Cc1ccc(O)cc1)C(=O)N[C@@H](Cc1c[nH]cn1)C(=O)N[C@H](C(N)=O)CSCCC3=O` [BCY20054, Ac-(SEQ ID NO: 49)] (Ac-CSEYC[1Nal]WPFYHC-NH2; linker 1-5-12 via TATA): the Kd is, setting by setting: under setting [2], 2540 nM; (Human BLI (Kd; nM) glycosylated, Table 4B, glycosylated human TREM2 ECD) 1830 nM.
